These results are taken from patent publication US12325677B2, “Carboxylic acid-type lipid, and lipid particle and lipid membrane each comprising carboxylic acid-type lipid” (Toray Industries, Inc., priority 2018, dated 2025).

Series [1] in a line: Thickness of lipid membrane from SEM observation image. The following applies: lipid supported on fiber sheet base (hemostatic materials E1 to E4), SEM ×5,000. It counts as physicochemical. As for the experimental part:
The thickness of the lipid membrane is preferably 10 to 1,000 nm, more preferably 30 to 500 nm, and still more preferably 60 to 240 nm. The method of measuring the lipid membrane is as follows. The lipid membrane is observed with a scanning electron microscope (SEM). The thickness of five points optionally selected in the SEM observation image is measured, and the mean is regarded as the thickness of the lipid membrane.
An SEM observation image (×1,000) of the base complex before supporting a lipid is shown in FIG. 5, and SEM observation images (×1,000) of the hemostatic materials E1 to E4 are shown in FIGS. 6 to 9, respectively.

A further series deals with guinea pig-derived PRP. Nature of the series: Evaluation of platelet aggregation capacity of hemostatic material (in vitro), protein assay of attached platelets. It counts as cell-based. The following applies: lipid supported on the base part in place of DHSG, Asp-DHSG, Glu-DHSG and AG-DHSG. As for the experimental part:
From the hemostatic materials D1, D2, D3 and D4, a base part (fiber sheet part) supporting DHSG, Asp-DHSG, Glu-DHSG and AG-DHSG, respectively, was taken out. To a 12-well plate, the base part (fiber sheet part) that was taken out and 1 mL of guinea pig-derived PRP (2.0×10^5/μL) prepared by the abovementioned method were added. Thereafter, ADP ([…], 100 μL) that activates platelets was added, and after allowing to stand at room temperature for 5 minutes, the mixture was washed with 1 mL of DPBS twice. Thereafter, to dissolve platelets attached to the base part (fiber sheet part), 500 μL of 0.5% Triton X was added, followed by allowing to stand at room temperature for 1 hour to obtain a platelet lysate. To a 96-well plate, […] of the platelet lysate prepared by the abovementioned method and 150 μL of PIERCE (trademark) 660 nm Protein Assay Kit were added, followed by allowing to stand for 5 minutes. By measuring absorbance at 660 nm using a microplate reader, proteins were quantitatively determined, and the determination results were used as an index of the count of platelets which were not washed away and were attached to the fiber sheet. The results in FIG. 4 are relative values when the platelet count in using the hemostatic material D1 is regarded as 1. […]

As to `CCCCCCCCCCCCCCCCOC(=O)CCC(NC(=O)CCC(=O)NC(CCC(=O)NC(CC(=O)O)C(=O)O)C(=O)NC(CC(=O)O)C(=O)O)C(=O)OCCCCCCCCCCCCCCCC` (centres unmarked) [AG-DHSG], the “Thickness of the lipid membrane” value in series [1] is given as 124 nm.
Take `CCCCCCCCCCCCCCCCOC(=O)CCC(NC(=O)CCC(=O)NC(CC(=O)O)C(=O)O)C(=O)OCCCCCCCCCCCCCCCC` (centres unmarked) [Asp-DHSG]: the “Thickness of the lipid membrane” value in series [1] amounted to 153 nm.
Same read-out and setting: next, `CCCCCCCCCCCCCCCCOC(=O)CCC(NC(=O)CCC(=O)O)C(=O)OCCCCCCCCCCCCCCCC` [DHSG, 1,5-Dihexadecyl-N-Succinyl-L-Glutamate, reference compound]: 131 nm.
In the case of `CCCCCCCCCCCCCCCC(=O)OC[C@H](COP(=O)([O-])OCC[N+](C)(C)C)OC(=O)CCCCCCCCCCCCCCC` [DPPC, 1,2-dipalmitoyl-sn-glycero-3-phosphatidylcholine], in the series on guinea pig-derived PRP, the “Platelets detected on the base part (fiber sheet part) as a result of washing” value is reported as “no platelets were detected”.
Turning to `CCCCCCCCCCCCCCCCOC(=O)CCC(NC(=O)CCC(=O)NC(CCC(=O)O)C(=O)O)C(=O)OCCCCCCCCCCCCCCCC` (centres unmarked) [Glu-DHSG], in series [1], the “Thickness of the lipid membrane” value worked out at 187 nm.
